Measured values taken from patent US20020115623A1, “Saponin derivatives useful for inhibiting sialyltransferase and biosynthesis of sialoglycoconjugate” (Shui-Tein Chen, priority 2000, published 2002).
Values belong to the compound of their own block, whether it stands above or below them.

Columns and labels:
α2,3-sialyltransferase = molecular target: T1, α2,3-sialyltransferase (Mus musculus, UniProt P54751); experiment: Assay of α2,3-sialyltransferase activity; format: biochemical; conditions: for Percentage of inhibition (%): concentration of inhibitor in assay 30 μM
T1 construct: made in house
T1 sequence (P54751 1-337): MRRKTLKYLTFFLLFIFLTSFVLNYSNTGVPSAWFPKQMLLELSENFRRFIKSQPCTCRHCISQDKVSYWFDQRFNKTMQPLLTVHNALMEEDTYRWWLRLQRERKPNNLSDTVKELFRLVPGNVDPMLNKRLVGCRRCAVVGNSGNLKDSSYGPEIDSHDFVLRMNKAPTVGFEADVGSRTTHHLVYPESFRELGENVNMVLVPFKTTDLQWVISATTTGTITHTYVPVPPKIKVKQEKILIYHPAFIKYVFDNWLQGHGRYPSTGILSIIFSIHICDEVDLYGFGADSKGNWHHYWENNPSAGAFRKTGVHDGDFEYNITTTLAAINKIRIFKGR
Description: (§1) α2,3-Sialyltransferases were prepared by the procedures as described by Tsuji et al, Eur J Biochem., 1993, 216(2), 377-85. The suspension of enzyme-bound beads in 250 mM sodium cacodylate buffer (pH 6.4), 25 mM MgCl2, 5 mM CaCl2 was mixed with a Vortex mixer. Then, 4 μl of the enzyme suspension (1×10^−6 Units) was pipetted using a Gilson P-20 pipetter immediately after mixing. The enzyme was then premixed with 4 μl of inhibitors (75 μM) or water (as control) at 25° C. for 5 min. Then, the substrates, 1 μl of CMP-[14C]NeuAc (40 nCi/μl) and 1 μl of Galα1,3GalNAc-Obzl (0.1 mM), were added to the pre-incubated enzyme-inhibitor mixture and incubated at 37° C. for 3 h. The final concentrations of sodium cacodylate, MgCl2, CaCl2, and Galα1,3GalNAc-OBzl in the reaction mixture were 100 mM, 10 mM, 2 mM, and […], respectively. The solution was placed in the ice to stop the reaction. The resulting reaction products were immediately analyzed by silica gel 60 HPTLC plate (Merck, Germany) with a solvent system of ethanol/pyridine/n-butanol/acetate/water (100:10:10:3:30). The radioactivity of the corresponding product and total radioactivity were detected and quantified with a BAS 1500 radio-image analyzer (Fuji Film, Japan).

α2,6-sialyltransferase = molecular target: T2, α2,6-sialyltransferase (Gallus gallus, UniProt Q92183); experiment: Assay of α2,6-sialyltransferase activity; format: biochemical; conditions: concentration of inhibitor in assay 20 μM
T2 construct: made in house
T2 sequence (Q92183 whole entry): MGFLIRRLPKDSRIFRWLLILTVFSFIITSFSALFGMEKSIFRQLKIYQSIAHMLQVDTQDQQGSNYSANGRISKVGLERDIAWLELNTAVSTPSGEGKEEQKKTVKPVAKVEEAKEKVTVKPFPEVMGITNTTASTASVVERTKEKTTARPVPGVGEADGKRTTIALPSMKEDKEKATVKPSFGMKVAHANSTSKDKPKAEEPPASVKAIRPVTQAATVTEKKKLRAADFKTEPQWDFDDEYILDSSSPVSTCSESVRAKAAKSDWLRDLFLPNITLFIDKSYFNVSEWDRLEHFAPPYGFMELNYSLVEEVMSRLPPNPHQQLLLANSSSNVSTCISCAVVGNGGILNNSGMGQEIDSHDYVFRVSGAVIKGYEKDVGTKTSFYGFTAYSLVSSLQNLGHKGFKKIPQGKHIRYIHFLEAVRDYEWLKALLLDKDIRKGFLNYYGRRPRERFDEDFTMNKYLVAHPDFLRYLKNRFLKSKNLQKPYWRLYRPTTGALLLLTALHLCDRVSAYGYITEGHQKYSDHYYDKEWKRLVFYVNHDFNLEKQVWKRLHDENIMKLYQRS
Description: as §1
α2,6-Sialyltransferases were prepared by the procedures as described by Tsuji et al, J Biol Chem., 1994, 269(2), 1402-9. The assay procedures for α2,6-Sialyltransferases were the same as those for α2,3-Sialyltransferases, except that 1 μl of Galα1,3GalNAc-Obzl (0.1 mM) was replaced by 1 μl of fetuin (1 μg/μl).

[1] = test system: human hepatoma HepG2 cells; experiment: Growth inhibition of HepG2 cells; format: cell-based; conditions: FIG. 3
Description: (§2) Human breast cancer cell MCF7 and hepatoma cell HepG2 were incubated in 5% CO2 incubator at 37° C. with the MEM (Eagle) medium with Earle's Bss supplemented with 2 mM glutamine, 1.5 g/l sodium bicarbonate, 0.1 mM non-essential amino acids, 1.0 mM sodium pyruvate, 100 units/ml penicillin, 100 μg/ml streptomycin and 2.5 μg/ml amphotericin B and with 10% fetal bovine serum. The cells were transferred weekly to 0.025% trypsin in 0.53 mM EDTA in Ca^2+Mg^2+-free PBS. The cells were incubated in the culture medium with 2.5% fetal bovine serum in the presence of a different concentration (5, 25, 50 and 100 μM, respectively) of the inhibitor in a 5% CO2 incubator at 37° C. for three days.

α-mannosidase = experiment: α-Mannosidase assay; format: biochemical; design: Relative Activity (%): dose or concentration left out as unconfirmed
Description: The α-mannosidase (10 mU/90 μl, Sigma) in 500 mM sodium phosphate buffer (pH 4.5) was mixed with 10 μl inhibitor (5 mM) or water, 100 μl 4-methylumbelliferyl-[…]-mannopyranoside (0.2 mM). The resulting solution was incubated at 37° C. for 30 min. The resulting products were detected through the same procedures as those for sialidase assay.

fucosyltransferase = experiment: Fucosyltransferase assay; format: biochemical; conditions: FIG. 1
Description: The fucosyltransferase (1 mU/10 μl, Calbiochem) in 100 mM Tris-HCl buffer (pH 7.5) and 40 mM MnCl2 was mixed with 4 μl inhibitor or water, 4 μl N-acetylglucosamine (1 mM) and 2 μl GDP-[^14C]fucose (20 nCi). The resulting solution was incubated at 37° C. for one hour. The reaction products were detected through the same procedures as those for sialyltransferase assay.

β-galactosidase = experiment: β-Galactosidase assay; format: biochemical; design: Relative Activity (%): dose or concentration left out as unconfirmed
Description: […] The resulting solution was incubated at 37° C. for 30 min. The resulting products were detected through the same procedures as those for sialidase assay.

[2] = test system: human breast cancer MCF7 cells; experiment: Growth inhibition of MCF7 cells; format: cell-based; conditions: FIG. 2
Description: as §2

[3] = test system: cell surface α2,6-sialoglycoconjugates on HepG2; experiment: Flow cytometry (FITC-SNA) of inhibitor-treated HepG2 cells; format: cell-based, human; conditions: for Cell surface α2,6-sialoglycoconjugates (%) on HepG2: three days, FITC-SNA stain, control 100
Description: as §2, with “PBS.” for “PBS. The cells were incubated in the culture medium with 2.5% fetal bovine serum in the presence of a different concentration (5, 25, 50 and 100 μM, respectively) of the inhibitor in a 5% CO2 incubator at 37° C. for three days.”
(§3) The cells were incubated in the culture medium with 2.5% fetal bovine serum in the presence of a different concentration (5, 25, 50 and 100 μM, respectively) of the inhibitor in a 5% CO2 incubator at 37° C. for three days.
(§4) Fluorescein isothiocyanate labeled Maackia amurensis agglutinin (MAA) and Sambucus nigra agglutinin (SNA), which recognize the oligosaccharide species NeuAcα2,3-Gal-R and NeuAcα2,6-R, respectively, were purchased from Vector Labs Inc. (Burlingame, Calif.). Cells (control and inhibitor-treated). The cells scraped from dishes with a rubber policeman were washed with PBS and stained with fluorescein isothiocyanate labeled MAA and SNA, respectively, in binding buffer (10 mM HEPES, 0.15 M NaCl, pH 7.5) at 4° C. for 1 h. After centrifugation, cells were washed three times with PBS and fixed with 1% paraformaldehyde. The fluorescence intensity was measured with a FACScan flow cytometry (Becton Dickinson, Mountain View, Calif.).

[4] = test system: cell surface α2,3-sialoglycoconjugates on MCF7; experiment: Flow cytometry (FITC-MAA) of inhibitor-treated MCF7 cells; format: cell-based, human; conditions: for Cell surface α2,3-sialoglycoconjugates (%) on MCF7: three days, FITC-MAA stain, control 100
Description: as §2, with “PBS.” for “PBS. The cells were incubated in the culture medium with 2.5% fetal bovine serum in the presence of a different concentration (5, 25, 50 and 100 μM, respectively) of the inhibitor in a 5% CO2 incubator at 37° C. for three days.”
as §3, §4

sialidase = experiment: Sialidase assay; format: biochemical; design: Relative Activity (%): dose or concentration left out as unconfirmed
Description: The sialidase (10 mU/90 μl, sigma) in 500 mM sodium phosphate buffer (pH 4.5) was mixed with 10 μl inhibitor (5 mM) or water, 100 μl 4-methylumbelliferyl-[…]-acetylneuraminic acid (0.2 mM, sigma). The resulting solution was incubated at 37° C. for 30 min. The solution was added 1 ml quenching buffer (0.133 M glycine-NaOH, pH 10.7, 60 mM NaCl and 41.5 mM Na2CO3) to stop the reaction. The fluorescence intensity of the resulting solution was measured by fluorescence spectrophotometer at 360 nm excitation and at 440 nm emission.

Compound: CC1OC(OC2C(OC3C(OC4CCC5(C)C(CCC6(C)C5CC=C5C7CC(C)(C)CC(O)C7(C)CCC56C)C4(C)C)OC(C(=O)O)C(O)C3O)OC(CO)C(O)C2O)C(O)C(O)C1O (centres unmarked) [kaikasaponin III]
Percentage of inhibition (%) (α2,3-sialyltransferase): 95.5% | Percentage of inhibition (%) (α2,6-sialyltransferase): 83.2%

Compound: CC1(C)C[C@@H](O)[C@]2(C)CC[C@]3(C)C(=CC[C@@H]4[C@@]5(C)CC[C@H](O[C@@H]6O[C@H](C(=O)O)[C@@H](O)[C@H](O)[C@H]6O[C@@H]6O[C@H](CO)[C@H](O)[C@H](O)[C@H]6O)[C@](C)(CO)[C@@H]5CC[C@]43C)[C@@H]2C1 [soyasaponin III]
Percentage of inhibition (%) (α2,3-sialyltransferase): 61.5% | Percentage of inhibition (%) (α2,6-sialyltransferase): 23.1%

Compound: C[C@@H]1O[C@@H](O[C@H]2[C@H](O[C@H]3[C@H](O[C@H]4CC[C@@]5(C)[C@@H](CC[C@]6(C)[C@@H]5CC=C5[C@@H]7CC(C)(C)C[C@@H](O)[C@]7(C)CC[C@]56C)[C@@]4(C)CO)O[C@H](C(=O)O)[C@@H](O)[C@@H]3O)O[C@H](CO)[C@H](O)[C@@H]2O)[C@H](O)[C@H](O)[C@H]1O [soyasaponin I]
inhibition of sialyltransferases (in words) (α2,3-sialyltransferase; FIG. 1, sialyltransferases, type not specified): specifically inhibited | Percentage of inhibition (%) (α2,3-sialyltransferase): 89.9% | growth of human hepatoma HepG2 cells (in words) [1]: inhibited the growth | inhibition of mannosidase (in words) (α-mannosidase; Table 3): did not inhibit | Relative Activity (%) (α-mannosidase; soyasaponin I, control 100): 99.4% | inhibition of fucosyltransferase (in words) (fucosyltransferase): not for fucosyltransferase | inhibition of galactosidase (in words) (β-galactosidase; Table 3): did not inhibit | Relative Activity (%) (β-galactosidase; soyasaponin I, control 100): 112.0% | growth of human breast cancer MCF7 cells (in words) [2]: inhibited the growth | Percentage of inhibition (%) (α2,6-sialyltransferase): 76.9% | Cell surface α2,6-sialoglycoconjugates (%) on HepG2 ([3]; 5 μM): 96.5% | Cell surface α2,6-sialoglycoconjugates (%) on HepG2 ([3]; 25 μM): 85.1% | Cell surface α2,6-sialoglycoconjugates (%) on HepG2 ([3]; 50 μM): 76.4% | decrease of cell surface α2,6-sialoglyconjugates of HepG2 cells ([3]; 100 μM): about 60% | Cell surface α2,6-sialoglycoconjugates (%) on HepG2 ([3]; 100 μM): 41.4% | Cell surface α2,3-sialoglycoconjugates (%) on MCF7 ([4]; 5 μM): 99.5% | Cell surface α2,3-sialoglycoconjugates (%) on MCF7 ([4]; 25 μM): 68.0% | Cell surface α2,3-sialoglycoconjugates (%) on MCF7 ([4]; 50 μM): 56.8% | decrease of the α2,3-sialoglyconjugates of MCF7 cells ([4]; 100 μM): about 80% | Cell surface α2,3-sialoglycoconjugates (%) on MCF7 ([4]; 100 μM): 19.8% | inhibition of sialidase (in words) (sialidase; Table 3): did not inhibit | Relative Activity (%) (sialidase; soyasaponin I, control 100): 142.0%

Now from value to compound:

Percentage of inhibition (%) (α2,3-sialyltransferase): 93.3% | Percentage of inhibition (%) (α2,6-sialyltransferase): 64.4%
Compound: C[C@@H]1O[C@@H](O[C@H]2[C@H](O[C@H]3[C@H](O[C@H]4CC[C@@]5(C)[C@@H](CC[C@]6(C)[C@@H]5CC=C5[C@@H]7CC(C)(C)C[C@@H](O)[C@]7(C)CC[C@]56C)[C@@]4(C)CO)O[C@H](C(=O)O)[C@@H](O)[C@@H]3O)OC[C@H](O)[C@@H]2O)[C@H](O)[C@H](O)[C@H]1O [soyasaponin II]

Percentage of inhibition (%) (α2,3-sialyltransferase): 79.6% | Percentage of inhibition (%) (α2,6-sialyltransferase): 32.9%
Compound: CC1(C)CC(O)C2(C)CCC3(C)C(=CCC4C5(C)CCC(OC6OC(C(=O)O)C(O)C(O)C6OC6OC(CO)C(O)C(O)C6OC6OC(CO)C(O)C(O)C6O)C(C)(CO)C5CCC43C)C2C1 (centres unmarked) [soyasaponin V]

Percentage of inhibition (%) (α2,3-sialyltransferase): 63.8% | Percentage of inhibition (%) (α2,6-sialyltransferase): 32.2%
Compound: soyasaponin I-Me
